Laboratory results published in patent US20240118559A1, “SUSTAINED RELEASE OF OLEIC ACID FROM CONTACT LENSES” (CooperVision International Limited, priority 2022, published 2024).
Counter-ions that a name gives are not always drawn.

What was measured:
[1] = molecular target: T1, recombinant human PLA2G2A (sPLA2) (Homo sapiens, UniProt P14555); assay: Oleic acid release from phospholipid-loaded stenfilcon A lenses in ATF with and without sPLA2 (digestion assay, LCMS); format: biochemical; conditions: 35±2° C., 4 hours; for Oleic acid peak area in ATF + sPLA2: ATF with 50 ppm recombinant human PLA2G2A; for Oleic acid peak area in ATF + sPLA2 / Oleic acid peak area in ATF: 4 mm piece of loaded stenfilcon A lens, 100 μL; for Oleic acid peak area in ATF: ATF without sPLA2
T1 construct: purchased Creative BioMart PLA2G2A-669H
T1 sequence (P14555 21-144): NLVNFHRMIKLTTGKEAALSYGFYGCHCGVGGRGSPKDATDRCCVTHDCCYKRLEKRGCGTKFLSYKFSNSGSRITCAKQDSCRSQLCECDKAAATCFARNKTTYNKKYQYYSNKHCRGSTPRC
Experimental: The phospholipids shown in Table 1 were obtain from Avanti Polar Lipids. 3 mg/ml loading solutions of the phospholipids shown in Table 1 were prepared by adding 2.4 mL ethanol to 9 mg of phospholipid, sonicating (up to 15 minutes) then adding 0.6 mL DI water and sonicating again (up to 15 minutes) to dissolve the phospholipid.
Hydrated contact lenses made from stenfilcon A were washed three times in 3 mL purified water for 30 minutes each time. Each washed lens was placed in 3 mL of a phospholipid loading solution and incubated at room temperature with gentle shaking at 75 rpm for 3 hours. The loaded lenses were then rinsed and hydrated in several exchanges of DI water. The lenses were packaged in a buffered saline contact lens packaging solution and autoclaved.
An artificial tear fluid (ATF) was prepared by adding the first three ingredients listed in Table 2 to a clean class vial and then adding 30 mL of the fourth ingredient.
After autoclave each lens was removed from its package and place in a 6 mL glass vial containing 5 mL of the ATF at room temperature on a shaker at 125 rpm overnight to elute any free oleic acid that may be present in the lens.
Each lens was rinsed in a 6 ml glass vial containing a fresh aliquot of 5 mL ATF for 30 minutes prior to running the digestion assay.
A 50 ppm solution of sPLA2 was prepared in ATF by adding 200 μl ATF to a tube containing 10 μg recombinant human PLA2G2A (Creative BioMart, Cat. No. PLA2G2A-669H). The solution is referred to as ATF+sPLA2. Two 4 mm pieces were cut from each lens. One piece of each lens was placed in a tube with 100 μL ATF and the other piece was placed in a tube containing 100 μL ATF+sPLA2. The tubes were incubated at 35±2° C. for 4 hours with no shaking.
50 μl of the release media from each lens at T=4 hr was transferred to HPLC vials and 500 μl isopropanol (IPA) was added and mixed well. T=0 hr HPLC vials were also prepared (50 μl ATF+500 μl IPA). All vials were sonicated for 15 minutes and centrifuged. The supernatant was removed for LCMS injection.
The supernatants were injected on an LCMS instrument equipped with an ACQUITY UPLC BEH C18 […], 2.1 mm×15 cm column and running a mobile phase gradient from 65% A to 90% B at a flow rate of 0.35 mL/min with A=40% acetonitrile in water with 10 mM ammonium acetate and 0.2% (v/v) ammonium hydroxide, and B=10% acetonitrile in IPA with 10 mM ammonium acetate and 0.2% (v/v) ammonium hydroxide. The mass spec detector is run at negative electrospray mode. The peaks for oleic acid (OA) in the supernatants were measured (m/z trace=281.24). The ratio of OA peak area in ATF with and without sPLA2 was calculated.

[2] = tested on: sPLA2 enzymes found in human tears; assay: Susceptibility to digestion by sPLA2 enzymes found in human tears when present in a silicone hydrogel contact lens body; format: biochemical; conditions: phospholipid present in a silicone hydrogel contact lens body
Excerpt: To achieve these and other advantages, and in accordance with the purposes of the present invention, as embodied and broadly described herein, the present invention, in part relates to a hydrogel contact lens comprising a polymeric lens body loaded with 2-oleoyl phospholipid. The 2-oleoyl phospholipid is advantageously susceptible to digestion by secretory phospholipase 2-acylhydrolase (sPLA2) enzymes found in human tears, especially group IIA secretory phospholipase 2-acylhydrolase (sPLA2-IIA). The 2-oleoyl phospholipid present in the contact lens body is advantageously susceptible to digestion by sPLA2 enzymes found in human tears, especially sPLA2-IIA when the 2-oleoyl phospholipid is present in the polymeric lens body of a silicone hydrogel contact lens, such as a stenfilcon A contact lens. […] For the avoidance of doubt, while the determination of whether a 2-oleoyl phospholipid is susceptible to digestion by sPLA2 enzymes may be carried out by loading the 2-oleoyl phospholipid to a stenfilcon A lens, the contact lens of the invention, including contact lenses comprising 2-oleoyl phospholipid that have been determined to be susceptible to digestion by sPLA2 enzymes, need not be stenfilcon A lenses and may be silicone hydrogel lenses of any formulation. […]

Compound	Ratio of OA peak area in ATF with and without sPLA2 [1]	Oleic acid peak area in ATF + sPLA2 [1]	Oleic acid peak area in ATF [1]	Susceptibility to digestion by sPLA2 enzymes found in human tears [2]
CCCCCCCCCCCCCC(=O)OC[C@H](COP(=O)([O-])OCC[N+](C)(C)C)OC(=O)CCCCCCCCCCCCC [DMPC, 1,2-dimyristoyl-sn-glycero-3-phosphocholine]				not be susceptible to digestion
CCCCCCCC/C=C\CCCCCCCC(=O)OC[C@H](COP(=O)([O-])OCC[N+](C)(C)C)OC(=O)CCCCCCC/C=C\CCCCCCCC [DOPC, 1,2-dioleoyl-sn-glycero-3-phosphocholine, reference compound]	1.2	125	102	
CCCCCCCC/C=C\CCCCCCCC(=O)OC[C@H](COP(=O)(O)OC[C@H](N)C(=O)O)OC(=O)CCCCCCC/C=C\CCCCCCCC [DOPS, 1,2-dioleoyl-sn-glycero-3-phospho-L-serine (sodium salt)]	16.4	1437	88	

The remaining lines, values ahead:

Ratio of OA peak area in ATF with and without sPLA2 [1]	Oleic acid peak area in ATF + sPLA2 [1]	Oleic acid peak area in ATF [1]	Susceptibility to digestion by sPLA2 enzymes found in human tears [2]	Compound
279	9958	36		CCCCCCCC/C=C\CCCCCCCC(=O)OC[C@H](COP(=O)([O-])OCC(O)CO)OC(=O)CCCCCCC/C=C\CCCCCCCC.[Na+] (mixture of isomers) [DOPG, 1,2-dioleoyl-sn-glycero-3-phospho-(1′-rac-glycerol) (sodium salt)]
4.6	2127	463		CCCCCCCC/C=C\CCCCCCCC(=O)OC[C@H](COP(=O)(O)OCCN)OC(=O)CCCCCCC/C=C\CCCCCCCC [DOPE, 1,2-dioleoyl-sn-glycero-3-phosphoethanolamine]
